Active and inactive are the calls of the source.
Key:
Bcl-2-like protein 10 = Bcl-2-like protein 10 (Homo sapiens, UniProt Q9HD36); assay: displacers of TR3 peptide from Bcl-B, primary screen, selectivity assay for Bfl-1 inhibitor project, biochemical, fluorescence polarization, FITC-TR3 peptide (AID 748);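 also: fluorescence polarization from a fluorescein-labelled TR3 peptide binding purified Bcl-B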
Cytochrome P450 2C19 = Cytochrome P450 2C19 (Homo sapiens, UniProt P33261); assay: Cytochrome panel assay with activity outcomes. Panel member name: p450-cyp2c19 Compounds with AC50 equal or less than 10 uM are considered active; type: functional; settings: read-out: AC50
[1] = target: T1, Replicative DNA helicase DnaB (Mycobacterium tuberculosis, UniProt P9WMR3); assay: DnaB intein splicing inhibitors, dose response, biochemical, cell-free fluorescence (AID 449749); type: functional
T1 sequence (P9WMR3 whole entry): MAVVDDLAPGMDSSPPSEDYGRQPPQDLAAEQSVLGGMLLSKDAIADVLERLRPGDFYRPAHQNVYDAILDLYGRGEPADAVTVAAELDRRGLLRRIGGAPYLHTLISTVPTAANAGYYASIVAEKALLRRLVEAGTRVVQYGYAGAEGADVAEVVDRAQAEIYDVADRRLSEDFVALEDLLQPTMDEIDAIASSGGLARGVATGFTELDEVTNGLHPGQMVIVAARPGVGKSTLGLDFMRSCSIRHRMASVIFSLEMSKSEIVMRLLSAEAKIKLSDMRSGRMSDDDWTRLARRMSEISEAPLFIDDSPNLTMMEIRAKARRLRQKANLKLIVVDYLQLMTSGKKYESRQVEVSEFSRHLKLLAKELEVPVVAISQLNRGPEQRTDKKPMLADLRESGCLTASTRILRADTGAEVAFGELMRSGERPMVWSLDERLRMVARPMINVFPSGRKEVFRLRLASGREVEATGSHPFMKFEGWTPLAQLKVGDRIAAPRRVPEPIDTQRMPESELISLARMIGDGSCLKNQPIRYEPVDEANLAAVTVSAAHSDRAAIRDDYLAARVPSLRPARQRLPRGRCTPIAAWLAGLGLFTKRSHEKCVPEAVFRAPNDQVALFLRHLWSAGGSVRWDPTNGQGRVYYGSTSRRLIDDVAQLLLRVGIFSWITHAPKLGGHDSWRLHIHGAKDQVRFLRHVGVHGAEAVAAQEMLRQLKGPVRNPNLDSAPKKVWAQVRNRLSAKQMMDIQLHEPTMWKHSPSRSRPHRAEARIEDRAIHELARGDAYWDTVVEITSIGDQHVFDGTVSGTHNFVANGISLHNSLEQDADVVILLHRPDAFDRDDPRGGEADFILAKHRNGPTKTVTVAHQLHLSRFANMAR

Protein RecA = target: T2, Protein RecA (Mycobacterium tuberculosis, UniProt P9WHJ3); assay: Fluorescence Cell-Free Homogeneous Dose Retest to Identify Inhibitors of RecA-Intein Splicing Activity. [Related pubchem assays (depositor defined):AID2097, AID2223, AID489010, AID492950]; type: functional
T2 sequence (P9WHJ3 whole entry): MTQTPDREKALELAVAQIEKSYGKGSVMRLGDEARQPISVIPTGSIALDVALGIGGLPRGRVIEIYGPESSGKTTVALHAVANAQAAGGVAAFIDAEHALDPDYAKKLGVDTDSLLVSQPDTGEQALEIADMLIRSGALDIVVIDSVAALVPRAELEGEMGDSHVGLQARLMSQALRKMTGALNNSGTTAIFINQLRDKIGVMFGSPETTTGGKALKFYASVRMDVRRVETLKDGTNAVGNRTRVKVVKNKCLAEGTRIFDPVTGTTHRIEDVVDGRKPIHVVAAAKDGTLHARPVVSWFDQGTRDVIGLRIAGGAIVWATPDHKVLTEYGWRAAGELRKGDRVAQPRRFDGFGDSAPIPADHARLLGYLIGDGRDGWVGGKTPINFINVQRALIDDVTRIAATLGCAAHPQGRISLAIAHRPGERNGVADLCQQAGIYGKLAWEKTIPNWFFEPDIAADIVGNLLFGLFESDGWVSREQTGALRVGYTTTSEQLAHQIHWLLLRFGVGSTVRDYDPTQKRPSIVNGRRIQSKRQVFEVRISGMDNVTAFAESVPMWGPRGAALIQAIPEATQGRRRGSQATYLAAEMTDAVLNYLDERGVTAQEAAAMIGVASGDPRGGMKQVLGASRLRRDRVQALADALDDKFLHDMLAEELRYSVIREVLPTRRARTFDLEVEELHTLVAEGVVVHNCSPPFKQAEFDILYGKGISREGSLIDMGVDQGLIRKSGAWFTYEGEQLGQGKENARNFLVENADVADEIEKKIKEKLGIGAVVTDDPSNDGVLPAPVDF

Cytochrome P450 2D6 = Cytochrome P450 2D6 (Homo sapiens, UniProt P10635);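 also: CYP2D6 member of a cytochrome P450 panel assay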
Cytochrome P450 3A4 = Cytochrome P450 3A4 (Homo sapiens, UniProt P08684);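 also: CYP3A4 tested as one member of a cytochrome P450 panel screen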
[2] = target: T3, RNA-binding protein pos-1 (Caenorhabditis elegans, UniProt G5EF15); assay: inhibitors of POS-1/mex-3 RNA binding, dose response, biochemical, fluorescence polarization (AID 1964);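 also: purified POS-1 fused to maltose binding protein made in E. coli; potency of compounds blocking POS-1 binding to fluorescent RNA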
T3 sequence (G5EF15 whole entry): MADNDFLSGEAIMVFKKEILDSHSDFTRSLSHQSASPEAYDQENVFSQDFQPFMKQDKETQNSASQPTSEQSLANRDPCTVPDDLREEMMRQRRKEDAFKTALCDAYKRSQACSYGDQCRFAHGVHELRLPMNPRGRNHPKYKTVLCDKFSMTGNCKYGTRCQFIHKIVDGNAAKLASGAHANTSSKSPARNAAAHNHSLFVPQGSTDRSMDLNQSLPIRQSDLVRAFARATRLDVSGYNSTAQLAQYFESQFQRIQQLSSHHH

[3] = target: T4, Zinc finger protein mex-5 (Caenorhabditis elegans, UniProt Q9XUB2); assay: MEX-5/TCR-2 RNA interaction inhibitors, dose response, biochemical, C. elegans, fluorescence polarization (AID 1960)
T4 sequence (Q9XUB2 whole entry): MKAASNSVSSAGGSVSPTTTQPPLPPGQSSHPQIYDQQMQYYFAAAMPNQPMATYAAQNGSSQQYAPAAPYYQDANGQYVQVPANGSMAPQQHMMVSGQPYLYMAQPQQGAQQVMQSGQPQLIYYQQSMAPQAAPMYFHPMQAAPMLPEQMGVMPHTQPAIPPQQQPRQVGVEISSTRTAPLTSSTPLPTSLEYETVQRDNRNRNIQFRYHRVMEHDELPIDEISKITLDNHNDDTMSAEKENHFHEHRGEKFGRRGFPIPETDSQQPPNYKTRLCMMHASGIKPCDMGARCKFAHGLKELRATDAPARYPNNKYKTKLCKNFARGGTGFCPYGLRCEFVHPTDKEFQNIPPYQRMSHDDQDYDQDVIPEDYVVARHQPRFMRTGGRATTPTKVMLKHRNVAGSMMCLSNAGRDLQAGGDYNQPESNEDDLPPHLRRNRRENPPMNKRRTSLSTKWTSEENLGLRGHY

[4] = target: T5, Voltage-gated N-type calcium channel alpha-1B subunit/Amyloid beta A4 precursor protein-binding family A member 1 (Homo sapiens, UniProt Q00975+Q02410); type: protein assay
[5] = target: T5, Voltage-gated N-type calcium channel alpha-1B subunit/Amyloid beta A4 precursor protein-binding family A member 1; type: protein assay; remark: listed apart in the source
[6] = target: Induced myeloid leukemia cell differentiation protein Mcl-1 (Homo sapiens, UniProt Q07820); type: functional
Hexokinase HKDC1 = target: T6, Hexokinase HKDC1 (Homo sapiens, UniProt Q2TB90); assay: HKDC1 hexokinase inhibitors, dose response, biochemical, W721R variant (AID 504729); type: functional
T6 sequence (Q2TB90 whole entry): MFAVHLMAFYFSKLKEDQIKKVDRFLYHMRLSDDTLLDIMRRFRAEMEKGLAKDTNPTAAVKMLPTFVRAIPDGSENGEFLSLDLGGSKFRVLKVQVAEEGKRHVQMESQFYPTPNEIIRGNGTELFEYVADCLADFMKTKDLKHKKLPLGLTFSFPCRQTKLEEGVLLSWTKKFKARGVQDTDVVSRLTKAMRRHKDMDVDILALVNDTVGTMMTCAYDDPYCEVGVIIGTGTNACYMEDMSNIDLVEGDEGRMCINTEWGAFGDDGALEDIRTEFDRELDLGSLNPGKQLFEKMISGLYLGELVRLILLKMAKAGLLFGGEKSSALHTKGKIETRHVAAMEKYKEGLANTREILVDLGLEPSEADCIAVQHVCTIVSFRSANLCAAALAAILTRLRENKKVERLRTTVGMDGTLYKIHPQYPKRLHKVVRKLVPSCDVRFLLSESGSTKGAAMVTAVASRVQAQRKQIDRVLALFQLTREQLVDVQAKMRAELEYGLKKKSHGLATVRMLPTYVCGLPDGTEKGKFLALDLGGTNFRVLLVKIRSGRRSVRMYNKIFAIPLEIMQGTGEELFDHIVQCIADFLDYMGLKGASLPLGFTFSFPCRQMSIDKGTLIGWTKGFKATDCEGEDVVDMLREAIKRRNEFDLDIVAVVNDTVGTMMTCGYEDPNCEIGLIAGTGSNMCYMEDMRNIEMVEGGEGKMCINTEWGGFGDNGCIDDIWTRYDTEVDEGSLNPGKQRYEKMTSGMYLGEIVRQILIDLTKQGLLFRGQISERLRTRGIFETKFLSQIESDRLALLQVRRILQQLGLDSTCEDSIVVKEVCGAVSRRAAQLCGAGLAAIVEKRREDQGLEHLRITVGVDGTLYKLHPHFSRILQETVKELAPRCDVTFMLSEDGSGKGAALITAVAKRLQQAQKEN

Vero [7] = assay: Vero cell cytotoxicity, cytotoxicity control for flavivirus capping enzyme inhibitors (AID 588742); type: functional; settings: Chlorocebus sabaeus
Vero [8] = assay: cells; type: functional; settings: Chlorocebus sabaeus
Genome polyprotein = Genome polyprotein (dengue virus type 2, UniProt P29990); assay: Dengue-2 NS5 methyltransferase inhibitors, primary screen, biochemical, confirmation dose response (AID 588689); type: functional
[9] = target: T7, Polyadenylate-binding protein 1 (Homo sapiens, UniProt P11940); assay: PABP1 MLLE–PAM2 interaction inhibitors, dose response, miRNA deadenylation inhibitor project, biochemical, fluorescence polarization, Cy5-PAM2 peptide, secondary (AID 602260); type: functional; settings: read-out: IC50_Mean
[10] = target: T7, Polyadenylate-binding protein 1; assay: PABP1 MLLE–PAM2 binding inhibitor potency, dose response, biochemical, fluorescence polarization, FITC-PAM2 peptide (AID 602259); type: functional; settings: read-out: IC50_Mean
[11] = target: T8, Histone-lysine N-methyltransferase NSD2 (Homo sapiens, UniProt O96028); type: biochemical
T8 sequence (O96028 whole entry): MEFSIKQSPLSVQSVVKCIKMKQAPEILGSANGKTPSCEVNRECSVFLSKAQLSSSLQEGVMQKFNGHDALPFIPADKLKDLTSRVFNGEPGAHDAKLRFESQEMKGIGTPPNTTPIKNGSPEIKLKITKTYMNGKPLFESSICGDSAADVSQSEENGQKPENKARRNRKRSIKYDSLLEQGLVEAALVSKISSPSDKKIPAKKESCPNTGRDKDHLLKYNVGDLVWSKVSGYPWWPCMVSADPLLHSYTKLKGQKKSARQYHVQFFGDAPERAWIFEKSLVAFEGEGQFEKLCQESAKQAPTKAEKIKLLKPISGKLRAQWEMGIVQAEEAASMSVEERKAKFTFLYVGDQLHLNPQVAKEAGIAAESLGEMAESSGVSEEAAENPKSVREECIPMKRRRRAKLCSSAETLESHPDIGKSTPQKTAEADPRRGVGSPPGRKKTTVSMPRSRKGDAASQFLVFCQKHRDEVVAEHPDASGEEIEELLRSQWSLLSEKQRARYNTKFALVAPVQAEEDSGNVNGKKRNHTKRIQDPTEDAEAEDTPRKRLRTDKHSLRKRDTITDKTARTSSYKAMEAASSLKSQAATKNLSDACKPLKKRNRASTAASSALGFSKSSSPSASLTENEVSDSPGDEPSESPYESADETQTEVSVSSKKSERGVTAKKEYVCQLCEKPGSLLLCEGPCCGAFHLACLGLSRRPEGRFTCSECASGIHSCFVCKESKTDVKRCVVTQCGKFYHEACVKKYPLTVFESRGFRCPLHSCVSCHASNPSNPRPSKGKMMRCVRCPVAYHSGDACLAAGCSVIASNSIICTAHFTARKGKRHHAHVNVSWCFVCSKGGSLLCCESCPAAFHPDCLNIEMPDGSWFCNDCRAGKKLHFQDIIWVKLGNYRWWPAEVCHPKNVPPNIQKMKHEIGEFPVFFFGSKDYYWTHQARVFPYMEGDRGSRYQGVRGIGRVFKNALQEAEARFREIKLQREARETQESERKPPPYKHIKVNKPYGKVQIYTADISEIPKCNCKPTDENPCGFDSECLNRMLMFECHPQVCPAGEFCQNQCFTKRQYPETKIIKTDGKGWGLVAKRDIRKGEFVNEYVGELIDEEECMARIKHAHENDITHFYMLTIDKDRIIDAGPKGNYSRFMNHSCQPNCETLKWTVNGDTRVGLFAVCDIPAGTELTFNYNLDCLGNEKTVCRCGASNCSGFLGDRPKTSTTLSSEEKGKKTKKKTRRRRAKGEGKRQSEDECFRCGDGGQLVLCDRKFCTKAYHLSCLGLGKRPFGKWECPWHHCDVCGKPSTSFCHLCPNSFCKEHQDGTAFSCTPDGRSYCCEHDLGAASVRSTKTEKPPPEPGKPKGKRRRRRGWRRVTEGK

T5 sequence (Q00975 whole entry): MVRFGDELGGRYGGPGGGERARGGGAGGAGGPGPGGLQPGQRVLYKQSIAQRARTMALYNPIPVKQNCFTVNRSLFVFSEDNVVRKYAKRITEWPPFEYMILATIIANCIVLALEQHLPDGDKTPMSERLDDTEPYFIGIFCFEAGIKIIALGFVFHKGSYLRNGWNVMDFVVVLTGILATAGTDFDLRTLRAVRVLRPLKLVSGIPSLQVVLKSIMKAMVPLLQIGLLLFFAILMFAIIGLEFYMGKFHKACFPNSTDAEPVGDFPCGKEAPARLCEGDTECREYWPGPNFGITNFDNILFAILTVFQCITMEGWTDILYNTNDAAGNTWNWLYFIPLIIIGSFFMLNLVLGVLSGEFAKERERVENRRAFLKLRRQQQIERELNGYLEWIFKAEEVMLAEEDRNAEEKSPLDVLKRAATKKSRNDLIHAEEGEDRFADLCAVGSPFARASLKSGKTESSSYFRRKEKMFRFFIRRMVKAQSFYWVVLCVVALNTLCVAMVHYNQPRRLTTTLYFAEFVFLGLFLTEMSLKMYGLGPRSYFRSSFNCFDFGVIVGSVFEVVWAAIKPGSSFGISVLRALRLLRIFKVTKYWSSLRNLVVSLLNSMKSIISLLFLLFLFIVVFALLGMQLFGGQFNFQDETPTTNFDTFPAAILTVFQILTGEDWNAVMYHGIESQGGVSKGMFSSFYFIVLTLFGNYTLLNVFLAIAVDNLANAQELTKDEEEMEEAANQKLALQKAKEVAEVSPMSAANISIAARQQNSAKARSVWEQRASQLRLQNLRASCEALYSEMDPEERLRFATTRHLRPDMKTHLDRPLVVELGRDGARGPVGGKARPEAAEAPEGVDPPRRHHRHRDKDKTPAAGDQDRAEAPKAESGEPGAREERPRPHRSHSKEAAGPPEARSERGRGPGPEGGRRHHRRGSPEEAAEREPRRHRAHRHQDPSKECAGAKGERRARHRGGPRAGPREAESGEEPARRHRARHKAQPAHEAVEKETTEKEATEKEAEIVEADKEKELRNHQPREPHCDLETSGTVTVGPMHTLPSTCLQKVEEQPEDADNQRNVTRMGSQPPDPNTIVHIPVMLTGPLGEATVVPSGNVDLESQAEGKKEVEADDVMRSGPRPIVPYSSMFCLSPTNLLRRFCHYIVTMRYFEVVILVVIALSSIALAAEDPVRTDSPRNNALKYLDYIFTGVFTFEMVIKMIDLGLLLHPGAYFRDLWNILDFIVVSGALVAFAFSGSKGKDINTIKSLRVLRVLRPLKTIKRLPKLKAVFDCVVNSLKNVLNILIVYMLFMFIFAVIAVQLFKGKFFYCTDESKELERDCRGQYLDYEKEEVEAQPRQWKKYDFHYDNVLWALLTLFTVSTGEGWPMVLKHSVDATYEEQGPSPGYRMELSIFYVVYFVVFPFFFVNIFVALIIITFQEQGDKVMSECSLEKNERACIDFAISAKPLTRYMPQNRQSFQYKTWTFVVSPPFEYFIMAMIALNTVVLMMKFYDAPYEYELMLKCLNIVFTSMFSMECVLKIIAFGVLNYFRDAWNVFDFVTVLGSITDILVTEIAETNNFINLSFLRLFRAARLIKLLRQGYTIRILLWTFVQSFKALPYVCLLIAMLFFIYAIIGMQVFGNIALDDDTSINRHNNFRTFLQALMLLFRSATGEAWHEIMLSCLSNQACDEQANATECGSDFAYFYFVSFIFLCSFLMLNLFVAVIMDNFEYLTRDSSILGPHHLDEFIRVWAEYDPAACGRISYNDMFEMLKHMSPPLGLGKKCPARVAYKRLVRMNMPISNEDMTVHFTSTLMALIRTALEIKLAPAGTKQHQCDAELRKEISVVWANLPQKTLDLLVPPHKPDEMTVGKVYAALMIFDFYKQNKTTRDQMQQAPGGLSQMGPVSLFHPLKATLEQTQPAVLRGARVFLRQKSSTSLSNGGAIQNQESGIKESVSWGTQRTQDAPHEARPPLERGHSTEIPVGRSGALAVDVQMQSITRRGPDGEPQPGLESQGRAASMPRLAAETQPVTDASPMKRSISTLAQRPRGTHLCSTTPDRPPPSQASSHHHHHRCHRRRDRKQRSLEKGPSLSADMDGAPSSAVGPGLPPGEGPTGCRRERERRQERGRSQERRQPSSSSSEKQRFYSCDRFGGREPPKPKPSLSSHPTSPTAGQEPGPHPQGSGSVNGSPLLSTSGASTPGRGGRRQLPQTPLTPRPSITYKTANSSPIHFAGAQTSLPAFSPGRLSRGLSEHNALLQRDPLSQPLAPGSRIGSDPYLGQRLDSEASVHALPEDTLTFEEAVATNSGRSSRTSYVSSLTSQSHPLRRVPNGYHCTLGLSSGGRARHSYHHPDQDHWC
T5 sequence (Q02410 whole entry): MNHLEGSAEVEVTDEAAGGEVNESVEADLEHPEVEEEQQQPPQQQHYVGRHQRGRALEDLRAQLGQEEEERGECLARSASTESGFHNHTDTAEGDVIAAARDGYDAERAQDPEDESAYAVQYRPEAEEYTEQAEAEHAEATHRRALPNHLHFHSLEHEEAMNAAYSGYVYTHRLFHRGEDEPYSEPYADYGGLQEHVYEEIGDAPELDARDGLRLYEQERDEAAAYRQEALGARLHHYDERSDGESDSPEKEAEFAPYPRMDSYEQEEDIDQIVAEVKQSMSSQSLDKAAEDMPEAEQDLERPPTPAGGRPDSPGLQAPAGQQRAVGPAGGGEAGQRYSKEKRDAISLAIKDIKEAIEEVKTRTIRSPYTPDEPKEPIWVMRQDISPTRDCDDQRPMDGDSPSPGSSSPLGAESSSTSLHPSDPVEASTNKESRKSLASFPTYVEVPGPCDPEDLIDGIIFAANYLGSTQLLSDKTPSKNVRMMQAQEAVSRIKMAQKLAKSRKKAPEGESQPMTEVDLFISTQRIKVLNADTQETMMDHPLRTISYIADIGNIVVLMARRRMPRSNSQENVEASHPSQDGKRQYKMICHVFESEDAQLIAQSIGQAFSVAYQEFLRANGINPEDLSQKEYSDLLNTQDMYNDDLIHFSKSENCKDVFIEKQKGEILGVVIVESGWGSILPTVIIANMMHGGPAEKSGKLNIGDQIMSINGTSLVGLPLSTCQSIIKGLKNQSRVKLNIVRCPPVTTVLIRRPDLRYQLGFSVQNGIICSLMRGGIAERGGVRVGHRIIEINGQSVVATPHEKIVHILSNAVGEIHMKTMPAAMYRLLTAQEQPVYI
T7 sequence (P11940 whole entry): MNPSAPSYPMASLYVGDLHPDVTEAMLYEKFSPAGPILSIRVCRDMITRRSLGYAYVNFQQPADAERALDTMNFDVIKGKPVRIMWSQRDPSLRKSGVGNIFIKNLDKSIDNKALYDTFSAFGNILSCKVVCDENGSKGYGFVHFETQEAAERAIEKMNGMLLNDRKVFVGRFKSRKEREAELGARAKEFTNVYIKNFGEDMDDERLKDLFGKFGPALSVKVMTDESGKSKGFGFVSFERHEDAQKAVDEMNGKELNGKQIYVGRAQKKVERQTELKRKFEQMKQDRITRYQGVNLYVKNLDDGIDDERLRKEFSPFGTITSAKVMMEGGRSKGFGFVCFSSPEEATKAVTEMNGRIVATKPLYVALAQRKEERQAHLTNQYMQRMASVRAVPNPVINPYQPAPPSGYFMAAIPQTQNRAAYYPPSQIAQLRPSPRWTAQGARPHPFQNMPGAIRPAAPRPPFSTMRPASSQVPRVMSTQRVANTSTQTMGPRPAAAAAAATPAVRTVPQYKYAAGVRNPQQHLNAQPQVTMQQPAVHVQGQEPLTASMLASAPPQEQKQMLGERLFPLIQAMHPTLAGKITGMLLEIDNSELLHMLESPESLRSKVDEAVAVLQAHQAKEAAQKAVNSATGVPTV
Chain of Bcl-2-like protein 10 (Q9HD36 whole entry): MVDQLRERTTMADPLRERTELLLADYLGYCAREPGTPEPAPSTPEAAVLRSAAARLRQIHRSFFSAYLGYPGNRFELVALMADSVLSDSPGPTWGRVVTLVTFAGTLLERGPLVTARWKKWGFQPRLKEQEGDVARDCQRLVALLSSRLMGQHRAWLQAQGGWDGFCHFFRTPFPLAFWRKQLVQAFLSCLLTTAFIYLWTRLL
Chain of Cytochrome P450 2D6 (P10635 whole entry): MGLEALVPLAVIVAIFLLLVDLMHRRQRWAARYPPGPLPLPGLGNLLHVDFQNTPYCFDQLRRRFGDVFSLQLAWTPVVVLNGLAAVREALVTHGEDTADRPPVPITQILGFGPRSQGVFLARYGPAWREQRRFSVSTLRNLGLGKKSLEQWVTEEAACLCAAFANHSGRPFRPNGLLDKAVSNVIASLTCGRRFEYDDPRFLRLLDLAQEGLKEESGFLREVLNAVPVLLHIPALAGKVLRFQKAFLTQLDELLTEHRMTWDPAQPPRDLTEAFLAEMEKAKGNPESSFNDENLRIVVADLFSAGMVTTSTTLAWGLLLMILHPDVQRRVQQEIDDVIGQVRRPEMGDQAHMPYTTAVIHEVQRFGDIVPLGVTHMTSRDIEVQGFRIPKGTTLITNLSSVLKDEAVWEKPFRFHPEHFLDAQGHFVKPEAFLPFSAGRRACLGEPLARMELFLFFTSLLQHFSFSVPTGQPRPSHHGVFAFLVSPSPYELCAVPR
Chain of Cytochrome P450 2C19 (P33261 whole entry): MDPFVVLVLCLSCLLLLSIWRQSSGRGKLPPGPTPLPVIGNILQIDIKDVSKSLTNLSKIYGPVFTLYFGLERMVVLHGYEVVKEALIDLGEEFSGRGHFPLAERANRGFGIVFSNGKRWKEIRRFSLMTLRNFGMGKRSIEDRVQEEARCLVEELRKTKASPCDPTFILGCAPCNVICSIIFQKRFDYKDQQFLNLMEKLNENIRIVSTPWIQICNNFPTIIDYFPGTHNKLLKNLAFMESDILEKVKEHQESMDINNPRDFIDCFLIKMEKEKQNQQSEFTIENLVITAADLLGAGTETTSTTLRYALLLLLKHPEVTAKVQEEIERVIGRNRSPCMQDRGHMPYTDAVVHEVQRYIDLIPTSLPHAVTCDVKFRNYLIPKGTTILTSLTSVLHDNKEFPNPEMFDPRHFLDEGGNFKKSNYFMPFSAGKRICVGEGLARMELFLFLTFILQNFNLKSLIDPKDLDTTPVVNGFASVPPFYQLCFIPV

| Compound | IC50 (Bcl-2-like protein 10) | AC50 (Cytochrome P450 2C19) | AC50 [1] | EC50 (Protein RecA) | AC50 (Cytochrome P450 2D6) | AC50 (Cytochrome P450 3A4) | EC50 [2] | EC50 [3] | IC50 [4] | IC50 [5] | IC50 [6] | IC50 (Hexokinase HKDC1) | CC50 (Vero [7]) | CC50 (Vero [8]) | IC50 (Genome polyprotein) | IC50 [9] | IC50 [10] | AC50 [11] |
| --- | --- | --- | --- | --- | --- | --- | --- | --- | --- | --- | --- | --- | --- | --- | --- | --- | --- | --- |
| Cc1cnnn1-c1ccc(C(=O)CCl)cc1 | > 50 µM (inactive) | 39.8 µM (inconclusive) | 29.1 µM (active) | 11.3 µM (active) | 0.0794 µM (inconclusive) | 25.1 µM (inconclusive) |  |  |  |  |  |  |  |  |  |  |  |  |
| CCN(CC)Cc1cc(O)c(CN(CC)CC)cc1O |  |  |  |  |  |  | 14.2 µM (active) | 2.77 µM (active) | > 56.8 µM (not active) | 2.05 µM (active) | 1.58 µM (active) | 17.4 µM (active) | > 40 µM (active) | > 25 µM (active) | 28.1 µM (active) | > 66 µM (inactive) | > 66 µM (inactive) | > 20 µM (inactive) |
